Laboratory results: patent US20100273203A1 (priority 2009, published 2010)
Where two headings read alike, the source gives them in different places.

Columns and labels:
CYP2C9 [1] = biological target: T1, CYP2C9 (Homo sapiens, UniProt P11712); conditions: read-out: reported Km; cited from earlier work
[2] = LC-MS/MS urinary metabolic profile of patients receiving warfarin; conditions: for % R / % S (proportion in (S)-enantiomeric form) / % conjugated (proportion glucuronidated) / urinary concentration: urine; for urinary concentration: free and conjugated
Excerpt: All chemicals used in this study were of at least reagent grade. Unless otherwise specified, all chemicals and reagents were purchased from either Sigma-Aldrich (St. Louis, Mo.) or Thermo Fisher Scientific (Waltham, Mass.). […] Ethyl alcohol (100%) was purchased from AAPER (Shelbyville, Ky.). Re-combinant CYP2C9*1, CYP3A4, CYP1A2, and CYP2C19 were expressed in baculovirus-infected insect cells and purchased from BD Biosciences (San Jose, Calif.). Commercially available urine specimens from three females (F84, F85, and F87) were provided by the Emergency Response and Air Toxicants Branch, Division of Laboratory Science National Center for Environmental Health Centers for Disease Control and Prevention (DeKalb County, Ga.). Patient studies were conducted under IRB-approved protocols, and all patients signed informed consent documentation.
This analytical phase was accomplished by reverse-phase HPLC using a 4.6 mm×150 mm C18 Zorbax Eclipse 5 μm XDB-C18 column provided by Agilent (Santa Clara, Calif.). The operating temperature was 40° C., and the sample injection volume was 5.0 μL. HPLC mobile phases consisted H2O (0.1% acetic acid v/v) (A) and methanol (0.1% acetic acid v/v) (B). The flow rate was 1 mL/min. […] The total run time per sample was 10 min. Specific MS/MS experimental conditions used in this study are noted in Table 1.
To determine the relative abundance of the (R)-and (S)-enantiomers of each metabolite, a 4.6 mm×25 cm Chirobiotic V5 μm column supplied by Supelco (Bellefonte, Pa.) was incorporated during the second analytical phase. Mobile phases consisted of H2O (0.1% acetic acid v/v) (A) and acetonitrile (0.1% acetic acid v/v) (B) with a flow rate of 800 μL/min. Enantiomeric separations were accomplished under isocratic conditions (80% A and 20% B). The sample injection volume was 15.0 μL. Enantiomeric MS/MS analyses were performed in negative ion mode by electrospray ionization (ESI) using a Turbo IonSpray source. A total run time of 20 min was required for adequate resolution. Specific MS/MS experimental conditions used in this study are noted in the Table 2.
Each response was normalized to that of the internal standard, 7-hydroxycoumarin (10 μM). […] Measurements of these three metabolites were calculated by taking the difference of the amount measured in the first analytical phase, which contained both (R)-and (S) isomers from the amount of the (S)-isomer measured in the second analytical phase (eq 3). Glucuronidated metabolites were measured by incubating 250 μL of urine with 2000 units of GUS in 100 mM sodium acetate buffer, pH 5.0. The final volume for each of these reactions was 1 mL. Control reactions omitting GUS were included with each sample set. Reactions were incubated overnight at 37° C., after which they were stored at −80° C. Immediately before analysis, both samples were diluted with an equal volume of ethanol containing 7-hydroxycoumarin (10 μM final concentration). The difference between GUS-treated samples and controls represented the amount of glucuronidated metabolites present.

CYP1A2 [3] = biological target: T2, CYP1A2 (Homo sapiens, UniProt P05177); assay: biochemical
T2 sequence (P05177 1-516): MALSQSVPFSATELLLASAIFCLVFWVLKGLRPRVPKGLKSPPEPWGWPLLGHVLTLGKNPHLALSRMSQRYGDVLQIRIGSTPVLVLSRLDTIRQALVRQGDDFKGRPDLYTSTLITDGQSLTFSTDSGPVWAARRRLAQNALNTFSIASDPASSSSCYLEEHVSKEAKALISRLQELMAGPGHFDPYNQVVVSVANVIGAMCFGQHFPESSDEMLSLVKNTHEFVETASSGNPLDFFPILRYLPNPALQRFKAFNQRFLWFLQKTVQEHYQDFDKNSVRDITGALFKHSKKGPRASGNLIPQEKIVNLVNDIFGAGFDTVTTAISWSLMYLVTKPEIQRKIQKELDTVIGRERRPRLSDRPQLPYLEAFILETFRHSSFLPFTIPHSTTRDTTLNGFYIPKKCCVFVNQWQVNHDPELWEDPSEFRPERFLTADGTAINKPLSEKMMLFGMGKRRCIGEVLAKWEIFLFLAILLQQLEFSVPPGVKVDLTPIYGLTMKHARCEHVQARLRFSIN

CYP1A2 [4] = biological target: T2, CYP1A2; conditions: read-out: IC50 for CYP marker reaction; P450-Glo marker reaction
plasma proteins = conditions: cited from earlier work
CYP2C9 [5] = biological target: T1, CYP2C9; conditions: read-out: IC50 toward recombinant CYP2C9 activity; P450-Glo, 50 μM Luciferin H; racemic compounds
Protocol: Hydroxywarfarins were screened for inhibitory potential toward recombinant CYP2C9 using the Promega (Madison, Wis.) CY2C9 P450-Glo™ Assay using the manufacturer's protocol. These IC50 studies were analyzed on a PerkinElmer Victor^3V™ 1420 Multilabel Counter. Recombinant CYP2C9, 50 nM, was incubated with 50 μM Luciferin H, and six concentrations of each hydroxywarfarin from approximately 10 nM to 4 mM final concentration, as optimized for each compound. The appropriate volume of hydroxywarfarin stocks in 100% ethanol were added to each well prior to addition of the substrate and enzyme, and the ethanol was allowed to evaporate at room temperature to minimize solvent effects on CYP2C9 activity. A final DMSO concentration of 1% was present in the reactions due to the P450-Glo Luciferin H. The reaction was initiated upon addition of an NADPH regenerating solution (BD Biosciences) and quenched with a luciferase quench (Promega) at 30 min.

[6] = biological target: CYP2C9 present in the human liver microsomes (Homo sapiens, UniProt P11712); conditions: S-warfarin metabolism; 7-hydroxywarfarin formation as marker
Sequence of CYP2C9 present in the human liver microsomes (P11712 whole entry): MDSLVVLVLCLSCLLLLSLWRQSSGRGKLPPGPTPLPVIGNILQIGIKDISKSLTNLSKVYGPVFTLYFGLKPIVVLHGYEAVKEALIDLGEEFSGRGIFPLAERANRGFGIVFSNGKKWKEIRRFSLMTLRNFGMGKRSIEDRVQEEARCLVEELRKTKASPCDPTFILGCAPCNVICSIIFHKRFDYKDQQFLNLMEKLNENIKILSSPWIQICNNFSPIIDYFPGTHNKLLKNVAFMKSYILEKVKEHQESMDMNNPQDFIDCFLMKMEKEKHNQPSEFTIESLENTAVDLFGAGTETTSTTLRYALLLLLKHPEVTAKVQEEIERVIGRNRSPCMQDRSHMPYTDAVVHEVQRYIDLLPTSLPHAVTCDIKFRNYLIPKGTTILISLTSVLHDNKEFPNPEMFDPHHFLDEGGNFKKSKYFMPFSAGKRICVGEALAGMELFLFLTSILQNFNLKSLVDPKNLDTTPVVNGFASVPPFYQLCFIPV
Protocol: (§1) For each hydroxywarfarin, at least 4 independent experimental replicates were performed.
(§2) MS/MS experimental conditions was used as described previously (6).
(§3) The most probable inhibition mechanism for recombinant CYP2C9 and human liver microsome reactions was identified using DynaFit ver. 3.28 (Biokin, Ltd) (20). Data from each set of hydroxywarfarin experiments were fit to traditional reversible inhibition mechanisms (competitive, uncompetitive, noncompetitive, or mixed). The respective kinetic parameters (Ki and Ki′) were set as variables, while the kinetic parameters (Vmax and Km) were constants based on values obtained from uninhibited reactions. The most probable mechanism was then identified using the Akaike Information Criterion (AICc) for model discrimination (21).

CYP2C9*1 [7] = biological target: T3, CYP2C9*1 (Homo sapiens, UniProt P11712); conditions: S-warfarin metabolism, 7-hydroxywarfarin formation as marker
Protocol: as §1, §2, §3

CYP2C9*1 [8] = biological target: T3, CYP2C9*1; conditions: read-out: IC50 for CYP marker reaction; P450-Glo marker reaction
CYP3A4 [9] = biological target: T4, CYP3A4 (Homo sapiens, UniProt P08684); conditions: read-out: IC50 for CYP marker reaction; P450-Glo marker reaction
T4 sequence (P08684 whole entry): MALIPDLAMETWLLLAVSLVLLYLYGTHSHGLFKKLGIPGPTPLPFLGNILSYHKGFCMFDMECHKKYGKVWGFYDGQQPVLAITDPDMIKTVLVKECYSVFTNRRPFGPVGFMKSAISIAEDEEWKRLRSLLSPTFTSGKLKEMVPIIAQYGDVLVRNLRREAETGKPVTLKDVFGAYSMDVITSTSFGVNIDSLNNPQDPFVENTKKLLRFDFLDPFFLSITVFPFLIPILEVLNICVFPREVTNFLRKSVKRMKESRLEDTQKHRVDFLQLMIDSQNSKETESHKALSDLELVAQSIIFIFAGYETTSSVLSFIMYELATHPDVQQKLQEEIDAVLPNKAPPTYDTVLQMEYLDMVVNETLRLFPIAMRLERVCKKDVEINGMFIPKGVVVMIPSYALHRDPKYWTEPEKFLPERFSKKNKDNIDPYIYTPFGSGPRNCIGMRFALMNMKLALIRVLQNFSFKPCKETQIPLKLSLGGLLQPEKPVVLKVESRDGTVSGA

UGT1A9 = UGT1A9 (Homo sapiens, UniProt O60656); conditions: glucuronidation; racemic OHWars
Sequence of UGT1A9 (O60656 26-530): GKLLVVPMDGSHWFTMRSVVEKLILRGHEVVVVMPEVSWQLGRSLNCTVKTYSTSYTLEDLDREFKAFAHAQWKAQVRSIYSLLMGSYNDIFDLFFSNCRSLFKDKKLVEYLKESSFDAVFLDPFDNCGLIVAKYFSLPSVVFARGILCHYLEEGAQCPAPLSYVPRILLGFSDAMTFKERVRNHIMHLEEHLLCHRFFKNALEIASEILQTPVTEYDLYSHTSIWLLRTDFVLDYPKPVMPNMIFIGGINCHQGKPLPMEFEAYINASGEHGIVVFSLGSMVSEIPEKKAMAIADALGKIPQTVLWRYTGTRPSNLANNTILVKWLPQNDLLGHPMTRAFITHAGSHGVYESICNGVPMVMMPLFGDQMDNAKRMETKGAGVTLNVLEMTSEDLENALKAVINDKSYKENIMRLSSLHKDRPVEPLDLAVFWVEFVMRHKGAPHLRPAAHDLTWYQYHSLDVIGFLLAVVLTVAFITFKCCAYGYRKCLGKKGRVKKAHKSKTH
Excerpt: (§4) The characterization of hepatic and extrahepatic glucuronidation may be made based on glucuronidation studies with 100 commercially available HLM and 100 intestinal microsomal preparations available in our laboratory. […] Both racemic mixtures and separated R and S enantiomers may be assayed. […] Activities of extrahepatic (UGT1A8 and UGT1A10) and hepatic (UGT1A1, UGT1A3, and UGT1A9) isoforms may be compared to that of their respective microsomal preparations, and assign the contribution of specific UGTs to product formation by the human samples.

UGT1A8 = UGT1A8 (Homo sapiens, UniProt Q9HAW9); conditions: glucuronidation; racemic OHWars
Sequence of UGT1A8 (Q9HAW9 26-530): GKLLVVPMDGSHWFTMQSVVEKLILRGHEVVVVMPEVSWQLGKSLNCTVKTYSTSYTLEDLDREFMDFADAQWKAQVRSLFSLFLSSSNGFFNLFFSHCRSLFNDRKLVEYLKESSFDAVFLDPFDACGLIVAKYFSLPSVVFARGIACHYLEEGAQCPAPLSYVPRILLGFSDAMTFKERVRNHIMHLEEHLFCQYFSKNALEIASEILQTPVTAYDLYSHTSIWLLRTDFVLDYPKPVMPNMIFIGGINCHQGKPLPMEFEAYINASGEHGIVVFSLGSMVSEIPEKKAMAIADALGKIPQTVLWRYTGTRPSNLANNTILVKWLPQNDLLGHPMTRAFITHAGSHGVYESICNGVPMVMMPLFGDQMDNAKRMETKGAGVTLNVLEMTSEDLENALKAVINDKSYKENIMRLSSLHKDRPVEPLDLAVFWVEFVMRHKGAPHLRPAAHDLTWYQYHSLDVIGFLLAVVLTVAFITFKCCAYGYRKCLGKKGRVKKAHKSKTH
Excerpt: as §4

UGT1A10 = UGT1A10 (Homo sapiens, UniProt Q9HAW8); conditions: glucuronidation; racemic OHWars
Sequence of UGT1A10 (Q9HAW8 26-530): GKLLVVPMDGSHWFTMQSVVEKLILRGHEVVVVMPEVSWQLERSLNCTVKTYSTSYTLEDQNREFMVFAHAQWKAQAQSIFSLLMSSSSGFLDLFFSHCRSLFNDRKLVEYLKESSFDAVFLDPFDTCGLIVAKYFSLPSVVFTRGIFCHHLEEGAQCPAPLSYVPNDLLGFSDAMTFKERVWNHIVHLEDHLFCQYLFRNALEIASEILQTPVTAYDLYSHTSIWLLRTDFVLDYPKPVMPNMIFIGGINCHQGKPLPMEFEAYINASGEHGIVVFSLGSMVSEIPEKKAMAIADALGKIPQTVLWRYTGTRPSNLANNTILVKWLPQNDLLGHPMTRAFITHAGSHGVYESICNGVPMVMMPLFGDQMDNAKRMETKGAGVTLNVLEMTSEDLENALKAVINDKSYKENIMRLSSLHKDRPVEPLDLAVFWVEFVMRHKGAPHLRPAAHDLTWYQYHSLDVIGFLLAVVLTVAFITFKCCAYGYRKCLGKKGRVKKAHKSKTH
Excerpt: as §4

CYP3A4 [10] = biological target: T4, CYP3A4; assay: Steady-state metabolism of R- and S-warfarin by recombinant CYP3A4
Protocol: (§5) Reactions were initiated upon addition of an NADPH regenerating system [2 μU μL-1 glucose 6-phosphate dehydrogenase, 10 mM glucose 6-phosphate, 2 mM MgCl2, 1 mM NADP^+]. […] The quenched reactions were centrifuged and the resulting supernatant containing substrate and products resolved and quantified by UPLC-MS/MS. Each experiment was performed in at least 4 independent experimental replicates.
(§6) The flow rate was constant at 250 μL/min. […] Electrospray conditions were as follows: spray voltage of 4500 V, sheath gas pressure 45, auxiliary gas pressure 20, and collision energy of 15-15 eV (compound specific).
(§7) Final metabolite concentrations were calculated from the ratio of metabolite area to internal standard area in the sample and compared to calibration curves as determined from the UPLC-MS/MS method. All compounds were quantified relative to authentic standards. The resulting kinetic data were analyzed with GraphPad Prism 5® software. Non-linear regression analysis was used to fit steady-state data to the Michaelis-Menten equation to determine the Vmax and Km parameters.

CYP3A7 = CYP3A7 (Homo sapiens, UniProt P24462); assay: Steady-state metabolism of R- and S-warfarin by recombinant CYP3A7
Sequence of CYP3A7 (P24462 whole entry): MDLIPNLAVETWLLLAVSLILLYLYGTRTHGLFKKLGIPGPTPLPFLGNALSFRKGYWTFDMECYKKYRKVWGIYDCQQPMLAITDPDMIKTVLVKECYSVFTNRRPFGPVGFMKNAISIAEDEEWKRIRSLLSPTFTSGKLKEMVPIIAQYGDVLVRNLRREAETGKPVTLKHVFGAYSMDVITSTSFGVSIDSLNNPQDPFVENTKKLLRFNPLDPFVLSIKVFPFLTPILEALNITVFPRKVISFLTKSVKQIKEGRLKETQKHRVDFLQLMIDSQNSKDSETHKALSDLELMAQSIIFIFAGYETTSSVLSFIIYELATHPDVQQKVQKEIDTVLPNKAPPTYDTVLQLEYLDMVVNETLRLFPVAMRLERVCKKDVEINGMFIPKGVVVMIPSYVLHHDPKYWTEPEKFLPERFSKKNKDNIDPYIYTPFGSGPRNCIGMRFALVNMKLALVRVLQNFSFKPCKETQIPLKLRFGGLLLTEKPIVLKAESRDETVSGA
Protocol: as §5, §6, §7

CYP2C9 [11] = biological target: T1, CYP2C9; conditions: not metabolized by CYP2C9; cited from earlier work
[12] = 10-hydroxywarfarin formation, 37° C, pH 7.4

T1 sequence (P11712 whole entry): as the sequence (P11712 whole entry) above

## CC(=O)CC(c1ccccc1)c1c(O)c2ccccc2oc1=O (racemic) [WAR, warfarin]
CYP2C9 [1]
  Km: 2.6 µM
[2]; female, human, in vivo
  individual concentrations in urine: 10 to 200 nM
CYP1A2 [3]
  IC50: 740 µM

## CC(=O)CC(c1ccccc1)c1c(O)c2cccc(O)c2oc1=O (stereo not shown) [8-OH-WAR, 8-hydroxywarfarin]
CYP1A2 [4]
  IC50: 830 µM
[2]; patient F84
  % R: 100%
  % S (proportion in (S)-enantiomeric form): 0%
  % conjugated (proportion glucuronidated): 31%
  urinary concentration: 111 nM
[2]; patient F85
  % R: 98%
  % S (proportion in (S)-enantiomeric form): 2%
  % conjugated (proportion glucuronidated): 53%
  urinary concentration: 109 nM
[2]; patient F87
  % R: 69%
  % S (proportion in (S)-enantiomeric form): 31%
  % conjugated (proportion glucuronidated): 7%
  urinary concentration: 231 nM
Plasma proteins
  plasma protein binding affinity relative to warfarin: three- to four-fold lower affinity
CYP2C9 [5]
  IC50: 16 µM
[6]
  Ki: 13 µM
  Mechanism of inhibition: Competitive
CYP2C9*1 [7]
  Ki: 21 µM
  Mechanism of inhibition: Mixed
CYP2C9*1 [7]; mixed inhibition
  Ki: 103 µM
CYP2C9*1 [8]
  IC50: 17.2 µM
CYP3A4 [9]
  IC50: 240 µM
UGT1A9
  Km: 107 ± 36 µM
  Vmax: 1.7 ± 0.1 nmol/mg protein/min
UGT1A8
  Km: 206 ± 70 µM
  Vmax: 1.5 ± 0.1 nmol/mg protein/min
UGT1A10
  Km: 383 ± 81 µM
  Vmax: 25 ± 2 nmol/mg protein/min

## CC(=O)C[C@H](c1ccccc1)c1c(O)c2ccccc2oc1=O [R-warfarin, (R) warfarin]
CYP3A4 [10]; 4′-hydroxywarfarin formation
  Km: 36 µM
  Vmax: 98 pmol product/min/nmol P450
CYP3A4 [10]; 10-hydroxywarfarin formation
  Km: 16 µM
CYP3A4 [10]; [12]
  Vmax: 1055 pmol product/min/nmol P450
CYP3A7; 4′-hydroxywarfarin formation
  Km: 1390 µM
  Vmax: 260 pmol product/min/nmol P450
CYP3A7; 10-hydroxywarfarin formation
  Km: 54 µM
CYP3A7; [12]
  Vmax: 116 pmol product/min/nmol P450
CYP2C9 [11]
  Ki: ~8 µM
